Source: patent US12616753B2, “HSP70 inhibitors and methods of using same” (THE WISTAR INSTITUTE, priority 2020, dated 2026)

Key:
[1] = molecular target: T1, full length human HSP70 (Homo sapiens, UniProt P0DMV8); assay: HSP70 mediated ATPase assay (Transcreener ADP-FI); format: biochemical
T1 construct: Five μL of 30 nM full length human HSP70 in assay buffer
Procedure: (§1) FIGS. 1A-1D show ATPase inhibition and direct binding of a novel HSP70 inhibitor. FIG. 1A: Compounds AP-3-97 and AP-4-139B are direct inhibitors of HSP70. HSP70 mediated ATPase activity was assessed using the TRANSCREENER® ADP-FI assay. Five microliters of 30 nM purified human HSP70 in assay buffer was added to test compounds for 30 minutes, followed by addition of excess ATP. After 15 minutes, reactions were stopped and fluorescence was assessed on a plate reader. Data are normalized to percent inhibition, where 100% is the value in the absence of HSP70, and 0% is the value in the presence of HSP70. Compounds shown include PET-16 (positive control) and the novel HSP70 inhibitors AP-3-97 and AP-4-139B. VY-3-277 was used as a negative control. FIG. 1B: Compound AP-4-139B binds HSP70. Whole cell extracts (WCE) from H1299 cells were incubated with 10 μM Biotin or with a Biotin-labeled variant of AP-4-139B (Biotin-AP-4-139B) for 5 hours. Biotin-AP-4-139B containing complexes were captured using NeutrAvidin resins and separated by SDS-PAGE. The Coomassie-stained protein band of approximately 70 kDa was excised and subjected to tryptic digestion and liquid chromatography-tandem mass spectrometry, and identified to be HSP70. FIG. 1C: H1299 cells were pre-treated with 10 μM of VY-3-277, PET-16, or AP-4-139B for 1 hour prior to the addition of 10 μM Biotin-AP-4-139B for 5 hours. Biotin-AP-4-139B containing complexes were captured by NeutrAvidin resins and immunoblotted using the indicated antibodies following SDS-PAGE. Whole cell extracts (WCE) were examined for the expression of HSP70 (input) and GRP75 (input) by Western blot analysis. FIG. 1D: Compound AP-4-139B directly binds purified human HSP70. […] Data were analyzed using the evaluation software from Biacore and the resulting sensograms were exported and re-plotted in GraphPad Prism.
HSP70 mediated ATPase activity was measured using the Transcreener® ADP-FI assay (BellBrook Labs). […] After 30 minutes, fluorescence at 560/620 nm was measured using the Envision plate reader. […]

[2] = molecular target: T2, HSP70 (Homo sapiens, UniProt P0DMV8); assay: HSP70 competition assay in H1299 cells; format: binding; settings: 10 μM, one-hour pre-incubation
T2 construct: BAP-4-139B successfully precipitated a single protein from H1299 cells; endogenous in cells; host or cells: H1299 human lung carcinoma cells
T2 sequence (P0DMV8 whole entry): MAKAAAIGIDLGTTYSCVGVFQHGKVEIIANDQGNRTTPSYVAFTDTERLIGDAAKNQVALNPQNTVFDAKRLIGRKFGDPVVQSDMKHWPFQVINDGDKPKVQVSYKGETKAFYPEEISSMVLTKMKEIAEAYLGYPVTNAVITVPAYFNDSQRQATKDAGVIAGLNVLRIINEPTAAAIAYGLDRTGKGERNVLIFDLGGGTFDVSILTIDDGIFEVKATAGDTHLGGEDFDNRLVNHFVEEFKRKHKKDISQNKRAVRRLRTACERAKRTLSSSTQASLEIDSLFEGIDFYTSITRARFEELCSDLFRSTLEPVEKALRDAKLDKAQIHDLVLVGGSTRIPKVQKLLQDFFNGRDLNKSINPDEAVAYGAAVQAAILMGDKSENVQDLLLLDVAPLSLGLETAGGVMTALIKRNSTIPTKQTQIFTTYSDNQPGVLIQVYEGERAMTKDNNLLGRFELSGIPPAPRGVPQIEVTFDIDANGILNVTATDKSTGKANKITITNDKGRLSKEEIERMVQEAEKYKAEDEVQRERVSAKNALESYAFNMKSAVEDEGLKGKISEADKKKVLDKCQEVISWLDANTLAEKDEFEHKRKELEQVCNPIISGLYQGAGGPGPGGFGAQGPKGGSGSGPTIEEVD
Procedure: as §1, with “HSP70.” for “HSP70. FIG. 1C: H1299 cells were pre-treated with 10 μM of VY-3-277, PET-16, or AP-4-139B for 1 hour prior to the addition of 10 μM Biotin-AP-4-139B for 5 hours. Biotin-AP-4-139B containing complexes were captured by NeutrAvidin resins and immunoblotted using the indicated antibodies following SDS-PAGE. Whole cell extracts (WCE) were examined for the expression of HSP70 (input) and GRP75 (input) by Western blot analysis. FIG. 1D: Compound AP-4-139B directly binds purified human HSP70.”, “Prism. […]” for “Prism.”

T1 sequence (P0DMV8 whole entry): as above

| Compound | IC50 [1] | prevention of BAP-4-139B pull down of HSP70 [2] | inhibition of HSP70 ATPase activity (in words) [1] |
| --- | --- | --- | --- |
| C(#C[P+](c1ccccc1)(c1ccccc1)c1ccccc1)c1ccccc1 [PET-16, Triphenyl(phenylethynyl)phosphonium bromide, reference compound] | ~3 µM | prevented the ability of BAP-4-139B to pull down HSP70 | – |
| c1ccc(-c2cn3nc(CCCCCC[P+](c4ccccc4)(c4ccccc4)c4ccccc4)sc3n2)cc1 [AP-4-139B, Triphenyl(6-(6-phenylimidazo[2,1-b][1,3,4]thiadiazol-2-yl)hexyl)phosphonium bromide] | – | prevented the ability of BAP-4-139B to pull down HSP70 | markedly superior potency |
